Reference: PubChem BioAssay AID2060332 (Molecular Pharmacology Branch, DTP, NCI, 2025)

Test system: LG0567-F671-PDC multi-cell spheroid viability
Test: Anticancer human tumor LG0567-F671-PDC patient-derived lung adenocarcinoma cell line growth inhibition [IpAb]
Conditions: for viability, T/C: stronger effect = lower value
From the text: Combinatorial screen of targeted agents with ipatasertib and abemaciclib in multi-cell type tumor spheroids
A high-throughput screen of multi-cell type tumor spheroids was designed to identify active combinations of targeted small molecules and ipatasertib or abemaciclib. Complex spheroids include a stromal component modeled by human endothelial cells (HUVEC) and fibroblasts modeled by human mesenchymal stem cells (MSCs). The concentration ranges selected for each drug and investigational agent were based upon clinically achievable concentrations if the clinical Cmax of the agent was known.
Compounds. The drugs and investigational agents: ipatasertib (NSC767898), abemaciclib(NSC768073), selumetinib (NSC741078), trametinib (758246), adavosertib (NSC754352), everolimus (NSC733504), sapanisertib (NSC764658), vemurafenib (NSC761431), venetoclax (NSC766270), copanlisib (NSC809693), apelisib (NSC765974), palbociblib (NSC758247), vemurafenib (NSC761431), dabrafenib (NSC764134), ravoxertinib (NSC781343), BMS-387032 (NSC767048), sotorasib (NSC818433), talazoparib (NSC767125) and afursertib (NSC778305), were obtained from the National Cancer Institute (NCI) Developmental Therapeutics Program Chemical Repository. The FDA-approved anticancer drug set is available from the NCI Developmental Therapeutics Program. […] The stock solutions were prepared in dimethyl sulfoxide (DMSO, Sigma-Aldrich, St. Louis, MO, cat. D2650) at 800-fold the tested concentration and stored at -70 degrees C prior to their use. All drugs and investigational agents were tested over a range starting from a high concentration at or near the clinical Cmax and decreasing in half-log increments. If the clinical Cmax for an agent had not been determined, the highest concentration tested was 10 microM.
NCI60 Cell Culture. NCI60 cell lines were obtained from the NCI Developmental Therapeutics Program Tumor Repository. For each lot of cells, the Repository performed Applied Biosystems AmpFLSTR Identifiler testing with PCR amplification to confirm consistency with the published Identifier STR profile for each cell line. Cells were kept in continuous culture for no more than 20 passages. The optimal seeding densities for each of the cell lines at each time point assessed were determined prior to performing the concentration response studies. Briefly, the NCI60 human tumor lines were grown as monolayers in RPMI 1640 medium supplemented with 10% FBS and 2 mmol/L L-glutamine.
An additional 9 lines were from the NCI60 cell line panel including MDA-MB-231 breast carcinoma, MDA-MB-468 breast carcinoma, MCF7 breast carcinoma, Hs578T breast carcinoma, MALME-3M melanoma, SK-MEL-2 melanoma, SK-OV-3 ovarian carcinoma, DU-145 prostate carcinoma, PC-3 prostate carcinoma, all cell lines along with major genetic alterations are listed on Table 2. Pooled donor human umbilical vein endothelial cells (HUVEC, Lonza, cat. CC-2519) and human mesenchymal stem cells (hMSC, Lonza, cat. PT-2501) were purchased from Lonza (Walkersville, MD).
PDMR cell lines were grown in complete medium (DC medium): Dulbecco's modified Eagle's medium (DMEM)/F12 supplemented with 5% fetal bovine serum (FBS), 2 mM L-glutamine, 100 U/mL penicillin and 100 µg/ml streptomycin, 0.4 µg/ml hydrocortisone, 10 ng/ml epidermal growth factor (EGF) recombinant human protein, 24 µg/mL adenine, and 0.1 mg/mL primocin. During culture from frozen stock vials, PDMR cells were cultured in the same medium containing 10 µM Y-27632 (see Table 3). The PDCs were cultured in complete DMEM/F12 media without 10 microM Y-27632 dihydrochloride for at least two passages prior to the screen. The pooled donor HUVEC and hMSC were cultured in endothelial cell growth medium 2 (PromoCell, Heidelberg, Germany, cat. C-22011) and mesenchymal stem cell growth medium 2 (PromoCell, cat. C-28009), respectively. For all experiments, HUVEC and hMSC were used at passages </=5.
[…]

[1] = curve of first compound, second compound 0.01 µM
[2] = curve of first compound, second compound 0.0316 µM
[3] = curve of first compound, second compound 0.1 µM
[4] = curve of first compound, second compound 0.316 µM
[5] = curve of first compound, second compound 1 µM
[6] = second compound 0.01 µM, first compound 0.0316 µM
[7] = second compound 0.01 µM, first compound 0.1 µM
[8] = second compound 0.01 µM, first compound 0.316 µM
[9] = second compound 0.01 µM, first compound 1 µM
[10] = second compound 0.01 µM, first compound 3.16 µM
[11] = second compound 0.01 µM, first compound 10 µM
[12] = second compound 0.0316 µM, first compound 0.0316 µM
[13] = second compound 0.0316 µM, first compound 0.1 µM
[14] = second compound 0.0316 µM, first compound 0.316 µM
[15] = second compound 0.0316 µM, first compound 1 µM
[16] = second compound 0.0316 µM, first compound 3.16 µM
[17] = second compound 0.0316 µM, first compound 10 µM
[18] = second compound 0.1 µM, first compound 0.0316 µM
[19] = second compound 0.1 µM, first compound 0.1 µM
[20] = second compound 0.1 µM, first compound 0.316 µM
[21] = second compound 0.1 µM, first compound 1 µM
[22] = second compound 0.1 µM, first compound 3.16 µM
[23] = second compound 0.1 µM, first compound 10 µM
[24] = second compound 0.316 µM, first compound 0.0316 µM
[25] = second compound 0.316 µM, first compound 0.1 µM
[26] = second compound 0.316 µM, first compound 0.316 µM
[27] = second compound 0.316 µM, first compound 1 µM
[28] = second compound 0.316 µM, first compound 3.16 µM
[29] = second compound 0.316 µM, first compound 10 µM
[30] = second compound 1 µM, first compound 0.0316 µM
[31] = second compound 1 µM, first compound 0.1 µM
[32] = second compound 1 µM, first compound 0.316 µM
[33] = second compound 1 µM, first compound 1 µM
[34] = second compound 1 µM, first compound 3.16 µM
[35] = second compound 1 µM, first compound 10 µM
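Further: viability read after 7 days of drug exposure.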
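Wherever viability, T/C is given: 100% = DMSO vehicle control luminescence.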

Compound | IC50 [3] [nM] | IC50 [4] [nM] | IC50 [5] [nM] | viability, T/C [18] [%] | viability, T/C [19] [%] | viability, T/C [20] [%] | viability, T/C [21] [%] | viability, T/C [22] [%] | viability, T/C [23] [%] | viability, T/C [24] [%] | viability, T/C [25] [%] | viability, T/C [26] [%] | viability, T/C [27] [%] | viability, T/C [28] [%] | viability, T/C [29] [%] | viability, T/C [30] [%] | viability, T/C [31] [%] | viability, T/C [32] [%] | viability, T/C [33] [%] | viability, T/C [34] [%] | other results
Cc1nc(NC(=O)N2CCCC2C(N)=O)sc1-c1ccnc(C(C)(C)C(F)(F)F)c1 (stereo not drawn) + CCN1CCN(Cc2ccc(Nc3ncc(F)c(-c4cc(F)c5nc(C)n(C(C)C)c5c4)n3)nc2)CC1 | 387 | 181 | 481 | 57.4 | 56.8 | 49.2 | 46 | 34.6 | 27.5 | 55.5 | 48.1 | 53.5 | 41.1 | 35.5 | 29.6 | 49.5 | 63.5 | 55.4 | 40.5 | 42.5 | IC50 [1]: 1080 nM; IC50 [2]: 658 nM; viability, T/C [6]: 80.2%; viability, T/C [7]: 66.6%; viability, T/C [8]: 56%; viability, T/C [9]: 54.3%; viability, T/C [10]: 43.5%; viability, T/C [11]: 32.4%; viability, T/C [12]: 51.6%; viability, T/C [13]: 75.1%; viability, T/C [14]: 57.4%; viability, T/C [15]: 44.6%; viability, T/C [16]: 41.1%; viability, T/C [17]: 33.7%; viability, T/C [35]: 38.3%
Cn1ncc(Cl)c1-c1cc(C(=O)NC(CN)Cc2cccc(F)c2)sc1Cl (stereo not drawn) + CCN1CCN(Cc2ccc(Nc3ncc(F)c(-c4cc(F)c5nc(C)n(C(C)C)c5c4)n3)nc2)CC1 | 470 | < 31.6 | 226 | 74.8 | 51.4 | 52.7 | 45.8 | 27.6 | 0.13 | 42.4 | 51.4 | 57.9 | 33 | 30.9 | 0.14 | 59 | 51.8 | 47.2 | 37.4 | 30 | IC50 [1]: 1850 nM; IC50 [2]: 1190 nM; viability, T/C [6]: 88.8%; viability, T/C [7]: 68%; viability, T/C [8]: 50.2%; viability, T/C [9]: 61.4%; viability, T/C [10]: 49.9%; viability, T/C [11]: 0.15%; viability, T/C [12]: 57.7%; viability, T/C [13]: 53.9%; viability, T/C [14]: 49.9%; viability, T/C [15]: 54.2%; viability, T/C [16]: 28.6%; viability, T/C [17]: 0.13%; viability, T/C [35]: 0.19%
CC(C)NCC(C(=O)N1CCN(c2ncnc3c2C(C)CC3O)CC1)c1ccc(Cl)cc1 (stereo not drawn) |  |  |  |  |  |  |  |  |  |  |  |  |  |  |  |  |  |  |  |  | viability, T/C (compound 0.316 µM): 71.7% [middle of 13 runs]; viability, T/C (compound 10 µM): 71.6% [middle of 13 runs]; IC50 (compound alone, run of 06/01/2021): > 10000 nM
CC1(C)CCC(CN2CCN(c3ccc(C(=O)NS(=O)(=O)c4ccc(NCC5CCOCC5)c([N+](=O)[O-])c4)c(Oc4cnc5[nH]ccc5c4)c3)CC2)=C(c2ccc(Cl)cc2)C1 + CC(C)NCC(C(=O)N1CCN(c2ncnc3c2C(C)CC3O)CC1)c1ccc(Cl)cc1 | 6900 | 5510 | 5380 | 78.6 | 86.3 | 93.8 | 88.6 | 93.9 | 31.9 | 50 | 91.5 | 81.6 | 55.8 | 83.8 | 25.9 | 63.5 | 82.9 | 88.4 | 76.2 | 70.4 | IC50 (curve of first compound, second compound 3.16 µM): 5360 nM; IC50 (curve of first compound, second compound 10 µM): 4760 nM; viability, T/C [35]: 26.1%; viability, T/C (second compound 3.16 µM, first compound 0.0316 µM): 71.5%; viability, T/C (second compound 3.16 µM, first compound 0.1 µM): 80.1%; viability, T/C (second compound 3.16 µM, first compound 0.316 µM): 79.9%; viability, T/C (second compound 3.16 µM, first compound 1 µM): 62.2%; viability, T/C (second compound 3.16 µM, first compound 3.16 µM): 72.7%; viability, T/C (second compound 3.16 µM, first compound 10 µM): 23.6%; viability, T/C (second compound 10 µM, first compound 0.0316 µM): 77.3%; viability, T/C (second compound 10 µM, first compound 0.1 µM): 79.5%; viability, T/C (second compound 10 µM, first compound 0.316 µM): 76.2%; viability, T/C (second compound 10 µM, first compound 1 µM): 79.9%; viability, T/C (second compound 10 µM, first compound 3.16 µM): 72.8%; viability, T/C (second compound 10 µM, first compound 10 µM): 8.73%
